# Experimental data: patent US4839374A, “4-((Bicyclic heterocyclyl)-methyl and -hetero)-piperidines” (Janssen Pharmaceutica, N.V., priority 1987, dated 1989)
# System: compound 48/80-induced lethality
# Assay: Protection of rats from compound 48/80-induced lethality
# Type: in vivo, rats of an inbred Wistar strain
# Details: Rattus norvegicus, 4 h, read-out: Compound 48/80 lethality test in rats ED50, s.c. or p.o. 1 h before compound 48/80 0.5 mg/kg i.v.; protection of 50% of animals, survival after 4 hours
# Procedure: Protection of rats from compound 48/80-induced lethality
# The protection from compound 48/80-induced lethal circulatory collapse appears to be a simple way of evaluating quantitatively the antihistaminic activity of test compounds. Male rats of an inbred Wistar strain, weighing 240-260 g were used in the experiment. After overnight starvation the rats were transferred to conditioned laboratories (temp.=21±1° C., relative humidity=65+5%). The rats were treated subcutaneously or orally with a test compound or with the solvent (NaCl solution, 0.9%). […] Survival after 4 hours is therefore considered to be a safe criterion of a protective effect of drug administration. The ED50 -values of the compounds of formula (I) are listed in the first column of tables 1 to 4. Said ED50 -values are the values in mg/kg body weight at which the tested compounds protect 50% of the tested animals against compound 48/80-induced lethality. The compounds of formula (I) and the pharmaceutically acceptable acid addition salts thereof are also potent serotonin-antagonists. The potency of the subject compounds as serotonin-antagonists is clearly evidenced by the results obtained in the following tests wherein the antagonistic activity of the subject compounds on the effect of serotonin is examined.
row,Structure (SMILES),ED50 [mg/kg]
1,COc1ccc(Cn2c(CC3CCN(CC#N)CC3)nc3ccccc32)cc1 [Compound 293],0.08
2,Cn1c(=O)n(CCN2CCC(Cc3nc4cccnc4n3Cc3ccco3)CC2)c(=O)c2ccccc21 [Compound 170],0.08
3,"COc1ccc(CCN2CCC(Cc3nc4ccccc4n3Cc3cnccn3)CC2)cc1 [Compound 524, 2-[[1-[2-(4-methoxyphenyl)ethyl]-4-piperidinyl]methyl]-1-(2-pyrazinylmethyl)-1H-benzimidazole]",0.16
4,Cc1nc2ccccn2c(=O)c1CCN1CCC(Cc2nc3cnccc3n2Cc2ccc(F)cc2)CC1 [Compound 274],0.16
5,"Fc1ccc(Cn2c(CC3CCN(CCNc4cnccn4)CC3)nc3ccncc32)cc1 [Compound 373, N-[2-[4-[[3-[(4-fluorophenyl)methyl]-3H-imidazo[4,5-c]pyridin-2-yl]methyl]-1-piperidinyl]ethyl]-2-pyrazinamine]",0.08
6,O=c1oc2ccccc2cc1CCN1CCC(Cc2nc3ccccc3n2Cc2cscn2)CC1 [Compound 265],0.02
7,"O=c1[nH]c2ccccc2c(=O)n1CCCCN1CCC(Cc2nc3cccnc3n2Cc2ccco2)CC1 [Compound 491, 3-[4-[4-[[3-(2-furanylmethyl)-3H-imidazo[4,5-b]pyridin-2-yl]methyl]-1-piperidinyl]butyl]-2,4-(1H,3H)-quinazolinedione]",0.16
8,COc1ccc(Cn2c(CC3CCN(CCCn4c(=O)[nH]c5ccccc54)CC3)nc3ccccc32)cc1 [Compound 154],0.08
9,"O=C(NCCN1CCC(Cc2nc3ccccc3n2Cc2ccc(F)cc2)CC1)c1ccoc1 [Compound 434, N-[2-[4-[[1-[(4-fluorophenyl)methyl]-1H-benzimidazol-2-yl]methyl]-1-piperidinyl]ethyl]-3-furancarboxamide]",0.0025
10,Cc1nc2n(c(=O)c1CCN1CCC(Cc3nc4ccccc4n3Cc3ccco3)CC1)CCS2 [Compound 163],0.02
11,COc1ccc(CCN2CCC(Cc3nc4ccccc4n3Cc3cccs3)CC2)cc1 [Compound 232],0.08
12,Cc1nc2n(c(=O)c1CCN1CCC(Cc3nc4ccccc4n3Cc3ccco3)CC1)CCCS2 [Compound 166],0.04
13,CN(CCN1CCC(Cc2nc3ccccc3n2Cc2ccc(F)cc2)CC1)Cc1ccccc1 [Compound 512],0.08
14,Cc1nc2ccccn2c(=O)c1CCN1CCC(Cc2nc3ccncc3n2Cc2ccc(F)cc2)CC1 [Compound 270],0.08
15,"Nc1ccccc1C(=O)NCCCCN1CCC(Cc2nc3ccccc3n2Cc2ccco2)CC1 [Compound 472, 2-amino-N-[4-[4-[[1-(2-furanylmethyl)-1H-benzimidazol-2-yl]methyl]-1-piperidinyl]butyl]benzamide]",0.04
16,"OCCN1CCC(Cc2nc3cccnc3n2Cc2ccc(F)cc2)CC1 [Compound 115, 4-[[3-[(4-fluorophenyl)methyl]-3H-imidazo[4,5-b]pyridin-2-yl]methyl]-1-piperidineethanol]",0.16
17,c1ccc(Cn2c(CC3CCN(CCNc4ncccn4)CC3)nc3ccccc32)cc1 [Compound 344],0.02
18,"Fc1ccc(Cn2c(CC3CCN(CCNc4nc5ccccc5[nH]4)CC3)nc3cccnc32)cc1 [Compound 329, N-[2-[4-[[3-[(4-fluorophenyl)methyl]-3H-imidazo[4,5-b]pyridin-2-yl]methyl]-1-piperidinyl]ethyl]1H-benzimidazol-2-amine]",0.31
19,Cc1nc2sccn2c(=O)c1CCN1CCC(Cc2nc3cccnc3n2Cc2ccco2)CC1 [Compound 173],0.01
20,Cc1nc2ccccn2c(=O)c1CCN1CCC(Cc2nc3ccccc3n2Cc2cccs2)CC1 [Compound 257],0.02
21,"O=c1c2ccccc2[nH]c(=S)n1CCN1CCC(Cc2nc3cccnc3n2Cc2ccc(F)cc2)CC1 [Compound 463, 3-[2-[4-[[3-[(4-fluorophenyl)methyl]-3H-imidazo[4,5-b]pyridin-2-yl]methyl]-1-piperidinyl]ethyl]-2,3-dihydro-2-thioxo-4(1H)quinazolinone]",0.08
22,c1ccc(Cn2c(CC3CCN(CCNc4ncccn4)CC3)nc3cccnc32)cc1 [Compound 345],0.08
23,"c1csc(Cn2c(CC3CCNCC3)nc3ccccc32)c1 [Compound 64, 2-(4-piperidinylmethyl)-1-(2-thienylmethyl)-1H-benzimidazole]",0.04
24,CN1CCC(Oc2nc3ccccc3n2Cc2ccc(F)cc2)CC1 [Compound 85],0.01

row,Structure (SMILES),ED50 [mg/kg]
1,"Fc1ccc(Cn2c(CC3CCNCC3)nc3ncccc32)cc1 [Compound 48, 1-[(4-fluorophenyl)methyl]-2-(4-piperidinylmethyl)-1H-imidazo[4,5-b]-pyridine]",0.16
2,"Cn1cnc([N+](=O)[O-])c1NCCN1CCC(Cc2nc3ccccc3n2Cc2ccc(F)cc2)CC1 [Compound 377, 4-[[1-[(4-fluorophenyl)methyl]-1H-benzimidazol-2-yl]methyl]-N-(1-methyl-4-nitro-1H-imidazol-5-yl)-1-piperidineethanamine]",0.16
3,"Fc1ccc(Cn2c(SC3CCN(CCOc4ncccn4)CC3)nc3ccccc32)cc1 [Compound 393, 1-[(4-fluorophenyl)methyl]-2-[[1-[2-(2-pyrimidinyloxy)ethyl]-4-piperidinyl]thio]-1H-benzimidazole]",0.08
4,O=c1oc2ccccc2cc1CCN1CCC(Cc2nc3cccnc3n2Cc2ccco2)CC1 [Compound 174],0.01
5,"O=c1[nH]c2ccccc2n1CCCN1CCC(Oc2nc3ccccc3n2Cc2ccc(F)cc2)CC1 [Compound 140, 1-[3-[4-[[1-[(4-fluorophenyl)methyl]-1H-benzimidazol-2-yl]oxy]-1-piperidinyl]propyl]-1,3-dihydro-2H-benzimidazol-2-one]",0.04
6,Cc1nc2ccccn2c(=O)c1CCN1CCC(Cc2nc3ccccc3n2Cc2cscn2)CC1 [Compound 261],0.08
7,"CCOC(=O)NCCN1CCC(Sc2nc3ccccc3n2Cc2ccc(F)cc2)CC1 [Compound 243, ethyl [2-[4-[[1-[(4-fluorophenyl)methyl]-1H-benzimidazol-2-yl]-thio]-1-piperidinyl)ethyl]carbamate]",0.04
8,O=c1[nH]c2ccccc2n1CCCN1CCC(Cc2nc3cccnc3n2Cc2ccco2)CC1 [Compound 152],0.04
9,Cc1nc2ccccn2c(=O)c1CCN1CCC(Cc2nc3cccnc3n2Cc2ccccn2)CC1 [Compound 256],0.08
10,"O=c1[nH]c2ccccc2n1CCCN1CCC(Cc2nc3ccccc3n2Cc2ccco2)CC1 [Compound 139, 1-[3-[4-[[1-(2-furanylmethyl)-1H-benzimidazol-2-yl]methyl]-1-piperidinyl]propyl]-1,3-dihydro-2H-benzimidazol-2-one]",0.08
11,COc1ccc(CCN2CCC(Cc3nc4ccccc4n3Cc3ccc(C)o3)CC2)cc1 [Compound 266],0.04
12,"Fc1ccc(Cn2c(CC3CCN(CCSc4nc5cnccc5s4)CC3)nc3ccccc32)cc1 [Compound 388, 2-[[2-[4-[[1-[(4-fluorophenyl)methyl]-1H-benzimidazol-2-yl]methyl]-1-piperidinyl]ethyl]thio]thiazolo[4,5-c]pyridine]",0.16
13,"OC(COc1ccc2ccccc2c1)CN1CCC(Cc2nc3ccccc3n2Cc2ccc(F)cc2)CC1 (stereo not drawn) [Compound 116, 4-[[1-[(4-fluorophenyl)methyl]-1H-benzimidazol-2-yl]methyl]-α-[(2-naphthalenyloxy)methyl]-1-piperidineethanol]",0.16
14,c1ccc(Cn2c(CC3CCN(CCNc4nccs4)CC3)nc3ccccc32)cc1 [Compound 363],0.04
15,"Fc1ccc(Cn2c(CC3CCN(CCNc4ccc(Cl)nn4)CC3)nc3ccccc32)cc1 [Compound 378, 6-chloro-N-[2-[4-[[1-[(4-fluorophenyl)methyl]-1H-benzimidazol-2-yl]methyl]-1-piperidinyl]ethyl]-3-pyridazinamine]",0.04
16,"Nc1ccccc1C(=O)NCCN1CCC(Cc2nc3cccnc3n2Cc2ccco2)CC1 [Compound 473, 2-amino-N-[2-[4-[[3-(2-furanylmethyl)-3H-imidazo[4,5-b]pyridin-2-yl]methyl]-1-piperidinyl]ethyl]benzamide]",0.02
17,Fc1ccc(Cn2c(CC3CCN(CCNc4ncnc5[nH]cnc45)CC3)nc3ccccc32)cc1 [Compound 370],0.02
18,"Fc1ccc(Cn2c(OC3CCNCC3)nc3ccccc32)cc1 [Compound 66, 1-[(4-fluorophenyl)methyl]-2-(4-piperidinyloxy)-1H-benzimidazole]",0.02
19,c1csc(Cn2c(CC3CCN(CCNc4nccs4)CC3)nc3cccnc32)c1 [Compound 361],0.02
20,"COc1ccc(CCN2CCC(Cc3nc4ccccc4n3CCc3ccccc3)CC2)cc1 [Compound 516, 2-[[1-[2-(4-methoxyphenyl)ethyl]-4-piperidinyl]methyl]-1-(2-phenylethyl)-1H-benzimidazole]",0.16
21,COc1ccc(Cn2c(CC3CCN(CCNc4nccs4)CC3)nc3cccnc32)cc1 [Compound 365],0.08
22,c1cnc(NCCN2CCC(Cc3nc4ccccc4n3Cc3cscn3)CC2)nc1 [Compound 338],0.02
23,Fc1ccc(Cn2c(CC3CCN(CCNc4cnccn4)CC3)nc3ccccc32)cc1 [Compound 368],0.01

# Same assay, conditions: s.c. or p.o. 1 h before compound 48/80 0.5 mg/kg i.v.; protection of 50% of animals, survival after 4 hours; 0.5 mg/kg, 240 min
row,Structure (SMILES),Compound 48/80 lethality test in rats ED50 [mg/kg body weight]
1,Cc1nc2n(c(=O)c1CCN1CCC(Cc3nc4ccccc4n3Cc3ccco3)CC1)CCS2 [Compound 167],0.01
